Source: PubChem BioAssay AID1259407 (Chemical Carcinogenesis Research Information System (CCRIS), 2018)
Calls of active or inactive are those of the source. The rule behind the calls is not given here.

Test system: CCRIS mutagenicity, Ames/micronucleus/aberration tests
Assay: CCRIS mutagenicity studies
Details: Test System: AMES SALMONELLA TYPHIMURIUM

Measured: mutagenic call

CC(NC(=O)COc1ccc(Cl)cc1Cl)C(=O)O (stereo unspecified)
inactive: Strain/Indicator: TA97, Metabolic Activation: RAT, LIVER, S-9, AROCLOR 1254, Method: STANDARD PLATE inactive; negative | Strain/Indicator: TA97, Metabolic Activation: WOODCHUCK, LIVER, S-9, 3-METHYLCHOLANTHRENE, Method: STANDARD PLATE inactive; negative | Strain/Indicator: TA98, Metabolic Activation: RAT, LIVER, S-9, AROCLOR 1254, Method: STANDARD PLATE inactive; negative | Strain/Indicator: TA98, Metabolic Activation: WOODCHUCK, LIVER, S-9, 3-METHYLCHOLANTHRENE, Method: STANDARD PLATE inactive; negative | Strain/Indicator: TA100, Metabolic Activation: RAT, LIVER, S-9, AROCLOR 1254, Method: STANDARD PLATE inactive; negative | Strain/Indicator: TA100, Metabolic Activation: WOODCHUCK, LIVER, S-9, 3-METHYLCHOLANTHRENE, Method: STANDARD PLATE inactive; negative | Strain/Indicator: TA1535, Metabolic Activation: RAT, LIVER, S-9, AROCLOR 1254, Method: STANDARD PLATE inactive; negative | Strain/Indicator: TA1535, Metabolic Activation: WOODCHUCK, LIVER, S-9, 3-METHYLCHOLANTHRENE, Method: STANDARD PLATE inactive; negative | Strain/Indicator: TA1538, Metabolic Activation: RAT, LIVER, S-9, AROCLOR 1254, Method: STANDARD PLATE inactive; negative | Strain/Indicator: TA1538, Metabolic Activation: WOODCHUCK, LIVER, S-9, 3-METHYLCHOLANTHRENE, Method: STANDARD PLATE inactive; negative

NNc1nc(-c2ccc([N+](=O)[O-])cc2)cs1
active: Strain/Indicator: TA98, Metabolic Activation: RAT, LIVER, S-9, KC500 OR PHENOBARBITAL, Method: LIQUID SUSPENSION active; positive | Strain/Indicator: TA100, Metabolic Activation: RAT, LIVER, S-9, KC500 OR PHENOBARBITAL, Method: LIQUID SUSPENSION active; positive

Nc1cccc2nc3ccccc3cc12
active: Strain/Indicator: TA1537, Metabolic Activation: NONE, Method: PREINCUBATION active; positive | Strain/Indicator: TA1537, Metabolic Activation: RAT, LIVER, S-9, TETRACHLOROBIPHENYL, Method: PREINCUBATION active; positive | Strain/Indicator: TA1538, Metabolic Activation: RAT, LIVER, S-9, TETRACHLOROBIPHENYL, Method: PREINCUBATION active; positive | Strain/Indicator: TA1977, Metabolic Activation: NONE, Method: PREINCUBATION active; positive | Strain/Indicator: TA1977, Metabolic Activation: RAT, LIVER, S-9, TETRACHLOROBIPHENYL, Method: PREINCUBATION active; positive
inactive: Strain/Indicator: TA1535, Metabolic Activation: NONE, Method: PREINCUBATION inactive; negative | Strain/Indicator: TA1535, Metabolic Activation: RAT, LIVER, S-9, TETRACHLOROBIPHENYL, Method: PREINCUBATION inactive; negative | Strain/Indicator: TA1538, Metabolic Activation: NONE, Method: PREINCUBATION inactive; negative | Strain/Indicator: TA1978, Metabolic Activation: RAT, LIVER, S-9, TETRACHLOROBIPHENYL, Method: PREINCUBATION inactive; negative
